Molecular target: T1, human MC5R (hMC5R) (Homo sapiens, UniProt P33032)
T1 construct: purchased Perkin Elmer RBXMC5M400UA
Experiment: Human MC5R radioligand binding assay (membranes, [125I] NDP-MSH displacement)
Settings: hMC5R binding; tested as trifluoroacetate or hydrochloride salts, or free bases; read-out: MC5R radioligand IC50
Method in brief: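 Displacement of [125I]NDP-MSH (radioiodinated in house, HPLC-purified) from hMC5R membranes by test compound measured after 1 hr incubation at 37° C.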

T1 sequence (P33032 whole entry): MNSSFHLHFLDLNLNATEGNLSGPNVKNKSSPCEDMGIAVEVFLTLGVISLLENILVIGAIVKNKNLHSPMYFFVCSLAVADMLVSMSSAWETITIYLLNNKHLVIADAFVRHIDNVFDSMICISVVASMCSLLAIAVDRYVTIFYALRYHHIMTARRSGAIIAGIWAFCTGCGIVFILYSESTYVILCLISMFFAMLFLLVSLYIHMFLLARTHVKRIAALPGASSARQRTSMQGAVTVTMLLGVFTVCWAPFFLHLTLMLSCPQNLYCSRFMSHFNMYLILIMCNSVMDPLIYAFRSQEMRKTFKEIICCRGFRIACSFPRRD

Structure (SMILES)	IC50 [nM]
O=C(NCC[C@@H]1CCN(CC(c2ccccc2)c2ccccc2)C(=O)[C@H](CCN2CCCC2)N1)c1ccc2ccccc2c1 [Compound 339, N-(2-((3S,5R)-1-(2,2-diphenylethyl)-2-oxo-3-(2-(pyrrolidin-1-yl)ethyl)-1,4-diazepan-5-yl)ethyl)-2-naphthamide]	< 1000
COc1ccc(C(CN2CC[C@@H](CNC(=O)c3ccc4ccccc4c3)N[C@@H](CCCNC(=N)N)C2=O)c2ccc(OC)cc2)cc1 [Compound 244, N-(((3S,5S)-1-(2,2-bis(4-methoxyphenyl)ethyl)-3-(3-guanidinopropyl)-2-oxo-1,4-diazepan-5-yl)methyl)-2-naphthamide]	< 10000
CC[C@H](CN1CC[C@@H](CNC(=O)/C=C/c2ccc(Cl)cc2)N[C@@H](CCN2CCCCC2)C1=O)c1ccccc1 [Compound 365, (E)-3-(4-chlorophenyl)-N-(((3S,5S)-2-oxo-1-((S)-2-phenylbutyl)-3-(2-(piperidin-1-yl)ethyl)-1,4-diazepan-5-yl)methyl)acrylamide]	< 10
O=C(NCC[C@@H]1CCN(CC(c2ccccc2)c2ccccc2)C(=O)[C@H](CCN2CCCCC2)N1)c1ccc2ccccc2c1 [Compound 306, N-(2-((3S,5R)-1-(2,2-diphenylethyl)-2-oxo-3-(2-(piperidin-1-yl)ethyl)-1,4-diazepan-5-yl)ethyl)-2-naphthamide]	< 1000
N=C(N)NCCC[C@@H]1N[C@H](CNC(=O)[C@H]2Cc3ccccc3CN2)CCN(CC(c2ccccc2)c2ccccc2)C1=O [Compound 134, (R)—N-(((3S,5S)-1-(2,2-diphenylethyl)-3-(3-guanidinopropyl)-2-oxo-1,4-diazepan-5-yl)methyl)-1,2,3,4-tetrahydroisoquinoline-3-carboxamide]	< 1000
CC(=O)N[C@@H](Cc1c[nH]cn1)C(=O)N[C@H](Cc1ccc2ccccc2c1)[C@@H]1CCN(CC(c2ccccc2)c2ccccc2)C(=O)[C@H](CCCNC(=N)N)N1 [Compound 86, (S)-2-acetamido-N—((R)-1-((3S,5S)-1-(2,2-diphenylethyl)-3-(3-guanidinopropyl)-2-oxo-1,4-diazepan-5-yl)-2-(naphthalen-2-yl)ethyl)-3-(1H-imidazol-4-yl)propanamide]	< 1000
N=C(N)NCCC[C@@H]1N[C@H](CNC(=O)c2ccc3ccccc3c2)CCN(CC(Oc2ccccc2)c2ccccc2)C1=O (stereo partly drawn) [Compound 295, N-(((3S,5S)-3-(3-guanidinopropyl)-2-oxo-1-(2-phenoxy-2-phenylethyl)-1,4-diazepan-5-yl)methyl)-2-naphthamide]	< 100
O=C(NC[C@@H]1CCN(CC(c2ccccc2)c2ccccc2)C(=O)[C@H](CCN2CCCCC2)N1)c1ccc2ccccc2c1 [Compound 368, N-(((3S,5S)-1-(2,2-diphenylethyl)-2-oxo-3-(2-(piperidin-1-yl)ethyl)-1,4-diazepan-5-yl)methyl)-2-naphthamide]	< 100
N=C(N)NCCC[C@@H]1N[C@H](CNC(=O)C2CC2c2ccccc2)CCN(CC(c2ccccc2)c2ccccc2)C1=O (stereo partly drawn) [Compound 174, N-(((3S,5S)-1-(2,2-diphenylethyl)-3-(3-guanidinopropyl)-2-oxo-1,4-diazepan-5-yl)methyl)-2-phenylcyclopropanecarboxamide]	< 1000

Next, values leading:

IC50 [nM]	Structure (SMILES)
< 100	CCC(C)(CC)CN1CC[C@@H](CNC(=O)c2ccc3cc(Cl)ccc3c2)N[C@@H](CCN2CCCCC2)C1=O [Compound 513, 6-chloro-N-(((3S,5S)-1-(2-ethyl-2-methylbutyl)-2-oxo-3-(2-(piperidin-1-yl)-ethyl)-1,4-diazepan-5-yl)methyl)-2-naphthamide]
< 100	O=C(NC[C@@H]1CCN(Cc2cc(Cl)cc(Cl)c2Cl)C(=O)[C@H](CCN2CCCCC2)N1)c1ccc2cc(Cl)ccc2c1 [Compound 522, 6-chloro-N-(((3S,5S)-2-oxo-3-(2-(piperidin-1-yl)ethyl)-1-(2,3,5-trichlorobenzyl)-1,4-diazepan-5-yl)methyl)-2-naphthamide]
< 100	Cc1ccc(/C=C/C(=O)NC[C@@H]2CCN(CC(c3ccccc3)c3ccccc3)C(=O)[C@H](CCN3CCCCC3)N2)c(C)c1 [Compound 398, (E)-3-(2,4-dimethylphenyl)-N-(((3S,5S)-1-(2,2-diphenylethyl)-2-oxo-3-(2-(piperidin-1-yl)ethyl)-1,4-diazepan-5-yl)methyl)acrylamide]
< 10000	CC(C)C(CN1CC[C@@H](CNC(=O)c2ccc3ccccc3c2)N[C@@H](CCN)C1=O)c1ccccc1 (stereo partly drawn) [Compound 388, N-(((3S,5S)-3-(2-aminoethyl)-1-(3-methyl-2-phenylbutyl)-2-oxo-1,4-diazepan-5-yl)methyl)-2-naphthamide]
< 100	CCC(CN1CC[C@@H](CNC(=O)c2ccc3cc(Cl)ccc3c2)N[C@@H](CCN)C1=O)c1ccsc1 (stereo partly drawn) [Compound 509, N-(((3S,5S)-3-(2-aminoethyl)-2-oxo-1-(2-(thiophen-3-yl)butyl)-1,4-diazepan-5-yl)methyl)-6-chloro-2-naphthamide]
< 100	CC[C@@H](CN1CC[C@@H](CNC(=O)c2ccc3cc(Cl)ccc3c2)N[C@@H](CCN2CCCCC2)C1=O)c1ccsc1 [Compound 510, 6-chloro-N-(((3S,5S)-2-oxo-3-(2-(piperidin-1-yl)ethyl)-1-((R)-2-(thiophen-3-yl)butyl)-1,4-diazepan-5-yl)methyl)-2-naphthamide]
< 1000	CCC(CC)CN1CC[C@@H](CNC(=O)c2ccc3cc(Cl)ccc3c2)N[C@@H](CCN)C1=O [Compound 370, N-(((3S,5S)-3-(2-aminoethyl)-1-(2-ethylbutyl)-2-oxo-1,4-diazepan-5-yl)methyl)-6-chloro-2-naphthamide]
< 100	CC[C@H](CN1CC[C@@H](CNC(=O)c2ccc(Cl)c(Cl)c2)N[C@@H](CCN2CC(C)CC(C)C2)C1=O)c1ccccc1 (stereo partly drawn) [Compound 449, 3,4-dichloro-N-(((3S,5S)-3-(2-(3,5-dimethylpiperidin-1-yl)ethyl)-2-oxo-1-((S)-2-phenylbutyl)-1,4-diazepan-5-yl)methyl)benzamide]
< 10	CC[C@H](CN1CC[C@@H](CNC(=O)c2ccc3cc(Cl)ccc3c2)N[C@@H](CCN2CCCC2)C1=O)c1ccccc1 [Compound 409, 6-chloro-N-(((3S,5S)-2-oxo-1-((S)-2-phenylbutyl)-3-(2-(pyrrolidin-1-yl)ethyl)-1,4-diazepan-5-yl)methyl)-2-naphthamide]
< 1000	CC[C@H](CN1CC[C@@H](CNC(=O)c2ccc3cc(Cl)ccc3c2)N[C@@H](CCNC(=O)NC(C)C)C1=O)c1ccccc1 [Compound 494, 6-chloro-N-(((3S,5S)-3-(2-(3-isopropylureido)ethyl)-2-oxo-1-((S)-2-phenylbutyl)-1,4-diazepan-5-yl)methyl)-2-naphthamide]
< 100	CC[C@H](CN1CCC(CNC(=O)c2ccc3cc(Cl)ccc3c2)NC(C2CCN(CCC(C)C)CC2)C1=O)c1ccccc1 (stereo partly shown) [Compound 448]
< 10	CC[C@H](CN1CC[C@@H](CNC(=O)c2ccc(Cl)c(Cl)c2)N[C@@H](CCN(C(C)C)C(C)C)C1=O)c1ccccc1 [Compound 445, 3,4-dichloro-N-(((3S,5S)-3-(2-(diisopropylamino)ethyl)-2-oxo-1-((S)-2-phenylbutyl)-1,4-diazepan-5-yl)methyl)benzamide]
< 100	CC(C)NCC[C@@H]1N[C@H](CNC(=O)/C=C/c2ccc(Cl)cc2)CCN(CC(c2ccccc2)c2ccccc2)C1=O [Compound 381, (E)-3-(4-chlorophenyl)-N-(((3S,5S)-1-(2,2-diphenylethyl)-3-(2-(isopropylamino)ethyl)-2-oxo-1,4-diazepan-5-yl)methyl)acrylamide]

— US8008291B2 (Mimetica Pty Ltd, priority 2008, dated 2011)
